Consider three molecules from PMC8489181 (Clinical cancer research : an official journal of the …, 2020).

A short description of series [1]: Everolimus whole blood pharmacokinetics. The format is in vivo, human. The note with it: for AUC(0-t): AUC0–24h at steady state; for AUC(0-t) / Cmax: everolimus 2.5 mg; for Cmax: geometric mean Cmax at steady state.
Series [2] deals with postmenopausal women with HR+, HER2− advanced breast cancer. As to the kind of experiment: Safety and tolerability. Type of series: in vivo, human.
Series [3] concerns postmenopausal women with ER+, HER2− ABC. The series can be described thus: Dose-limiting toxicities in cycle 1. Type of series: in vivo.
For series [4] the following is noted: ribociclib CYP3A4 inhibitor, everolimus CYP3A4 substrate; cited from earlier work.
A short description of series [5]: Ribociclib plasma pharmacokinetics. Type of series: in vivo, human. The note with it: for AUC(0-t): geometric mean AUC0–24h at steady state; for half-life: geometric mean effective half-life based on drug accumulation.
The mark [6] stands for this setting: female, human, whole blood, oral, dose-escalation group 1.
Where [7] appears, read: female, human, whole blood, oral, dose-escalation group 2.
[8] abbreviates: dose-escalation group 1 (fasting).
[9] abbreviates: taken with food, ribociclib 3 weeks on/1 week off in a 4-week cycle.
Where [10] appears, read: dose-expansion group 1 (CDK4/6i-naïve).
[11] abbreviates: dose-expansion group 2 (CDK4/6i-refractory).
Where [12] appears, read: female, human, plasma, oral, dose-escalation group 1.
The mark [13] stands for this setting: female, human, plasma, oral, dose-escalation group 2.

Usually Tmax stands for the time at which the peak concentration occurs. As a reminder, the AUC(0-t) is exposure summed from dosing to a finite time, without extrapolation to infinity. Usually Cmax stands for the highest concentration seen after dosing. Turning to `CO[C@H]1C[C@@H]2CC[C@@H](C)[C@@](O)(O2)C(=O)C(=O)N2CCCC[C@H]2C(=O)O[C@H]([C@H](C)C[C@@H]2CC[C@@H](OCCO)[C@H](OC)C2)CC(=O)[C@H](C)/C=C(\C)[C@@H](O)[C@@H](OC)C(=O)[C@H](C)C[C@H](C)/C=C/C=C/C=C/1C` [everolimus], the “AUC0–24h” value in series [1] (at the RP2D) is 303 ng·h/mL. In addition, the “everolimus exposure increase in the presence of ribociclib (dose-dependent DDI)” value in series [1] (dose-escalation phase) was “two- to fourfold”. For the same molecule, the time to peak (Tmax) in series [1] (female, human, whole blood, oral) is 1 to 2 h. Besides, the AUC(0-t) in series [1] (setting [6]) is 166 to 307 ng·h/mL; in series [1] (setting [7]) it was 117 to 316 ng·h/mL. Besides, the Cmax in series [1] (setting [6]) is 19.7 to 30.3 ng/mL; in series [1] (setting [7]), 8.25 to 29.4 ng/mL. Further, the “patients requiring ≥1 dose interruption” value in series [2] (setting [8]) is 70.7%; in series [2] (dose-escalation group 2 (fed)), 83.3%. In addition, the figures for the “patients requiring ≥1 dose reduction” value in series [2] (setting [8]) and in series [2] (dose-escalation group 2 (fed)) were 2.4% and 4.8%, respectively. For the same molecule, the dose reductions result in series [2] (dose-expansion phase) is given as “no dose reductions”. For the same molecule, the “recommended phase II dose (RP2D) in the triplet” value (“recommended phase II dose (RP2D)” for short) in series [3] (setting [9]) is recorded as 2.5 mg once daily. In addition, the “expected increase of everolimus exposure by treatment with ribociclib” value in series [4] is reported as “approximately 3.5 fold”.

As to `C=C1C[C@@H]2[C@H](CC[C@]3(C)C(=O)CC[C@@H]23)[C@@]2(C)C=CC(=O)C=C12` [exemestane], the “patients requiring ≥1 dose interruption” value came to 61% in series [2] (setting [8]) and 71.4% in series [2] (dose-escalation group 2 (fed)). Besides, the “recommended phase II dose (RP2D)” value in series [3] (female, human, in vivo, 28 days) is on record as 25 mg once daily.

A word on the half-life: it is how long it takes for the measured level to halve. Higher therefore signals slow decline. As for `CN(C)C(=O)c1cc2cnc(Nc3ccc(N4CCNCC4)cn3)nc2n1C1CCCC1` [ribociclib], the “patients requiring ≥1 dose interruption” value in series [2] (setting [8]) is listed as 68.3%; in series [2] (dose-escalation group 2 (fed)) it was 80.9%; in series [2] (setting [10]), 87.5%; in series [2] (setting [11]) it was 82.4%. Moreover, the “patients requiring ≥1 dose reduction” value in series [2] (setting [8]) was 22.0%; in series [2] (dose-escalation group 2 (fed)) it was 33.3%; in series [2] (setting [10]), 43.8%; in series [2] (setting [11]) it was 23.5%. Besides, the “recommended phase II dose (RP2D)” value in series [3] (setting [9]) came out at 300 mg once daily. In addition, the Tmax in series [5] (female, human, plasma, oral) is 1 to 4 h. Also, the highest concentration (Cmax) is 773 ng/mL in series [5] (female, human, plasma, oral, Cmax at steady state, at the RP2D); 413 to 1000 ng/mL in series [5] (female, human, plasma, oral, geometric mean Cmax at steady state, dose-escalation group 1, 200–350 mg dose); 289 to 955 ng/mL in series [5] (female, human, plasma, oral, geometric mean Cmax at steady state, dose-escalation group 2). The values for the AUC(0-t) in series [5] (setting [12]) and in series [5] (setting [13]) were 4570 to 11100 ng·h/mL and 3970 to 13400 ng·h/mL, respectively. Moreover, the half-life lay in the range of 24.9 to 47.6 h in series [5] (setting [12]) and 29.5 to 49.9 h in series [5] (setting [13]). In series [5] (same dose level, fed versus fasted), the “mean steady-state exposure in the presence of food” value was “slightly lower”. The “DDI in the presence of everolimus and exemestane” value in series [5] (triplet combination, versus single-agent ribociclib exposure) was “No DDIs were observed”.
